From the NIST ThermoML archive (doi:10.1016/j.tca.2013.09.032)

Assay: molar heat capacity at constant pressure
Details: 101.33 kPa, Crystal, Vacuum adiabatic calorimetry

Cc1cc2nc3c(=O)[nH]c(=O)nc-3n(C[C@H](O)[C@H](O)[C@H](O)CO)c2cc1C [riboflavin]
Details	molar heat capacity at constant pressure [J/K/mol]
1 K	0.0523
2 K	0.209
3 K	0.47
4 K	0.836
5 K	1.31
6 K	1.88
6.75 K	2.55
7 K	2.65
7.32 K	2.83
8 K	3.25
8.41 K	3.45
8.94 K	4.08
9 K	4.08
9.34 K	4.48
9.68 K	4.81
10 K	5.1
10.15 K	5.25
10.36 K	5.42
10.98 K	6.23
11.56 K	7.05
11.98 K	7.68
13.16 K	9.25
15 K	12
15.03 K	12.22
16.92 K	15.24
18.77 K	18.25
20 K	20.35
20.65 K	21.38
22.79 K	25.35
24.95 K	29.29
25 K	29.5
27.13 K	33.81
29.37 K	38.36
30 K	39.49
31.61 K	42.49
33.91 K	47.31
35 K	49.35
36.25 K	51.78
38.52 K	56.45
40 K	59.26
40.96 K	60.98
43.38 K	65.91
45 K	68.91
45.72 K	70.28
48.12 K	74.84
50 K	78.34
50.55 K	79.52
52.99 K	83.98
55.45 K	88.71
57.93 K	93.42
60 K	97.31
60.48 K	98.18
62.91 K	102.6
65.4 K	106.9
67.89 K	110.9
70 K	114.4
70.37 K	115.1
72.85 K	119.2
75.32 K	123.3
77.79 K	128.2
80 K	132
80.34 K	132.4
82.75 K	137.1
83.48 K	138.3
85.22 K	141.4
86.72 K	144.2
88.86 K	147.9
89.48 K	148.9
90 K	149.6
92.71 K	153.8
95.7 K	158.4
98.7 K	162.9
100 K	165.2
101.67 K	167.8
104.65 K	172.4
107.64 K	177.1
110 K	180.4
110.63 K	181.6
113.62 K	185.8
116.63 K	190.1
119.63 K	194.3
120 K	195
122.64 K	198.5
125.66 K	202.7
128.69 K	207.3
130 K	209.2
131.7 K	211.6
134.72 K	215.9
137.75 K	220.3
140 K	223.3
140.77 K	224.6
143.8 K	229
146.83 K	233
149.86 K	237.2
150 K	237.5
152.9 K	241.7
155.94 K	246
158.98 K	250.1
160 K	251.7
162.02 K	254.2
165.06 K	258.6
168.1 K	263
170 K	265.7
171.14 K	267.3
174.19 K	271.6
177.26 K	276
180 K	279.4
180.3 K	279.9
183.34 K	283.9
186.38 K	288.1
189.42 K	291.9
190 K	293
192.46 K	296.2
195.5 K	300.5
198.54 K	305
200 K	306.7
201.58 K	308.7
204.61 K	313
207.64 K	317.5
210 K	320.5
210.68 K	321.4
213.72 K	325.8
216.77 K	330
219.81 K	334
220 K	334.7
222.86 K	338.3
225.93 K	342.3
228.98 K	346.6
230 K	348.2
232.02 K	350.4
235.06 K	355
238.11 K	359.4
240 K	361.5
241.15 K	363.5
244.2 K	367.7
247.25 K	371.5
250 K	375.1
250.29 K	375.6
253.34 K	379.8
256.38 K	383.9
259.42 K	388.4
260 K	389.1
262.46 K	392.5
265.5 K	396.6
268.54 K	400.6
270 K	403
271.58 K	404.8
273.15 K	407.4
274.65 K	409.2
277.69 K	413.5
280 K	416.6
280.72 K	417.4
283.75 K	421.5
286.78 K	425.5
289.8 K	429.8
290 K	429.9
292.82 K	434
295.84 K	438.2
298.15 K	441.1
298.86 K	442.2
302.37 K	447.3
306.36 K	453.1
310 K	458.6
310.36 K	459.1
314.34 K	464.5
318.32 K	470
320 K	472.1
322 K	474.1
322.29 K	474.7
